Test results taken from patent publication US5208148A, “Lipophilic fluorescent glycosidase substrates” (Molecular Probes, Inc., priority 1990, dated 1993).
“Also recorded” adds a separate entry of the source. Counter-ions that a name gives are not always drawn. Like-named read-outs stand apart in the source and are kept apart here.

Tests used:
β-galactosidase = target: T1, β-galactosidase (Escherichia coli, UniProt P00722); assay: In vitro kinetic assay of galactosidase substrates (absorbance increase at 490 nm); format: biochemical; settings: in buffer, pH 7.0, room temperature; for Km: read-out: KM (Michaelis constant)
T1 construct: purchased Sigma Chemical Co., St. Louis, Mo
Text: There are two parameters to describe the catalytic reaction of an enzyme on its substrate. The turnover rate k2, i.e. the substrate conversion rate by one unit of enzyme, can be expressed as μmol/(minute·mg). The Michaelis constant KM which gives the substrate binding ability to an enzyme (the smaller is KM, the higher is binding ability), can be expressed as μM. The relevant data for turnover of five lipophilic FDG substrates by β-galactosidase is detailed in Table 2.
The substrates have essentially no absorbance at 490 nm while their hydrolysis products from reaction with β-galactosidase have a strong absorbance at this wavelength. Using the extinction coefficients of the products, the substrate hydrolysis rate can be determined by the absorbance increase at 490 nm (Table 2).
13.8 g NaH2 PO4.H2 O, 0.2 g MgCl2.6H2 O and 7 mL liquid 2-mercaptoethanol are dissolved in 1 liter distilled water and adjusted to pH 7.0 using NaOH.
The glycosidase substrates are dissolved at 5 mg/mL in anhydrous DMSO.
β-Galactosidase (Sigma Chemical Co., St. Louis, Mo.) is dissolved at 1 mg/mL in water. This solution is stable for 24 hours at room temperature.
A series of substrate concentrations between 1 μM and 1 mM in 2.8 mL of the assay buffer is prepared and pipetted into a cuvette. 0.2 mL of a 1 mg/mL solution of β-galactosidase in water is added in the cuvette at room temperature to initiate the enzymatic reaction and the absorbance increase at 490 nm is immediately recorded in the spectrophotometer equipped with a chart recorder set at a speed of 10 mm/min. The enzyme reaction rate is calculated using an appropriate product extinction coefficient. Double reciprocal plotting of reaction rate and substrate concentration will yield the turnover rate and Michaelis constant (Stryer, BIOCHEMISTRY p. 189 (W. H. Freeman & Co., N.Y. 1988)).

NIH3T3 (lacZ-) cells = assay: Labeling of lacZ- control cells with fluorogenic substrate, fluorescence microscopy; format: cell-based, mouse; settings: 60 μM, after 1 hr. incubation
Method: (§1) CRE BAG 2 (lacZ+) cells were used to test the effectiveness of the substrate in labeling lacZ+ cells. NIH3T3 (lacZ-) cells were used as a control. Both cell lines were obtained from American Type Culture Collection Co., Rockville, Md. The cells were grown in a humidified atmosphere of 5% CO2 in Dulbecco's modified Eagle's medium (DMEM) supplemented with 10% calf serum, 50 μg/ml gentamycin, 300 μg/ml L-glutamine and 10 mM HEPES pH 7.4 (culture medium).
(§2) to 1.0 mg of 5-fattyacylaminofluorescein di-β-galactopyranoside substrate (C12 FDG) was added 0.1193 ml of 20% DMSO to get 10 mM stock solution. Stock solutions were kept sealed in the brown bottle and stored at 4° C.
(§3) […] Labeling culture medium was filter-sterilized by passing through an ACRODISC™ filter (0.20 μm pore size).
Cells were washed with fresh (non-labeling) culture medium before examination. Cells were observed using a microscope equipped with a fluorescein filter. […] After 6 hrs., the fluorescence intensity in CRE BAG 2 cells reached its highest level.

CRE BAG 2 (lacZ+) cells = assay: Labeling of lacZ+ cells with fluorogenic substrate, fluorescence microscopy; format: cell-based, mouse; settings: 60 μM
Text: The photographs were taken under a Zeiss Axioplan Microscope equipped with FITC filter set using Fujichrome p1600 color reversal (slide) film. This film was then commercially developed. The black and white photographs were printed from color slides under the following conditions: 1)Internegative using Ilford Panf film, exposed for 1/60 sec. at f11;2) black and white prints on Kodak polycontrast III paper.
as §1, §2, §3
Cells were washed with fresh (non-labeling) culture medium before examination. […] After 6 hrs., the fluorescence intensity in CRE BAG 2 cells reached its highest level.

cells = assay: Cytotoxicity of the labeling reagent for cultured cells; format: cell-based; settings: for toxicity effects on labelled cells: concentration up to 100 mM
plant cell populations = settings: cited from earlier work
[1] = test system: GUS gene positive tobacco plant cells; assay: Detection of GUS gene expression in transformed plant cells; format: cell-based; settings: 100 μM, 4 h incubation, GUS+ versus control cells
Method: In our cellular assay, the tobacco plant with and without the GUS gene (CaMV35S-GUS, cauliflower mosaic virus 35S promoter with the coding region of GUS) were used. (Ref: Jefferson, R.A., EMBO J., 1987, 6, 3901-3907).
Sections of the stem of both plants were cultured on Murashige and Skoog basal medium with sucrose and agar inside of plant culture dish at 2000 lux, 18 h day, 26° C. The calli were collected from the dishes, cut to small pieces and transferred to liquid medium (in screw cap 50 ml Erlenmeyer flasks) to get cell suspension with shaking (120 rpm) at the culture room. Sterilized 1 mM FA910 solution (in water) was added to the cell suspension to final concentration of 100μM. After incubating cells in normal condition for 4 h, take 1 ml of suspension, spin down the cells. The cells were resuspended in 100 μl of fresh culture medium, placed onto glass slide, covered with a cover glass and sealed with wax.
Both the GUS+ and control tobacco cells were examined under a Zeiss microscope equipped with FITC filter set. Photographs were taken of both fluorescent and Nomaski images (Fujichrome P1600D, color reversal film, daylight).

lacZ+ cell = assay: Examination of galactosidase activity of sorted cells with resorufin galactoside; format: cell-based; settings: 0.5 mM, 0.1 M phosphate buffer, 0.1% Triton X-100
Method: The sorted cell is collected in a 96 well microtiter plate (Corning, N.Y.). The cell galactosidase activity is examined by means of the permeant fluorogenic substrate resorufin galactoside (Molecular Probes, Inc., Eugene, OR). To 20 μl cell sample in a microtiter well, is added 200 μl of a 0.5 mM resorufin galactoside solution in 0.1 M phosphate buffer containing 1 mM MgCl2 and 0.1% Triton X-100. After 1 hour incubation, the plate is read in a CYTOFLUOR™ fluorescence plate reader (Millipore, Bedford, Mass.) with excitation at 560 nm, emission at 645 nm, sensitivity=1. A fluorescence reading below 20 can be scored lacZ- cell and a reading higher than 60 can be scored lacZ+. The resorufin galactoside can detect the enzyme activity in a single lacZ^+ cell within 1 hour.

T1 sequence (P00722 2-1024): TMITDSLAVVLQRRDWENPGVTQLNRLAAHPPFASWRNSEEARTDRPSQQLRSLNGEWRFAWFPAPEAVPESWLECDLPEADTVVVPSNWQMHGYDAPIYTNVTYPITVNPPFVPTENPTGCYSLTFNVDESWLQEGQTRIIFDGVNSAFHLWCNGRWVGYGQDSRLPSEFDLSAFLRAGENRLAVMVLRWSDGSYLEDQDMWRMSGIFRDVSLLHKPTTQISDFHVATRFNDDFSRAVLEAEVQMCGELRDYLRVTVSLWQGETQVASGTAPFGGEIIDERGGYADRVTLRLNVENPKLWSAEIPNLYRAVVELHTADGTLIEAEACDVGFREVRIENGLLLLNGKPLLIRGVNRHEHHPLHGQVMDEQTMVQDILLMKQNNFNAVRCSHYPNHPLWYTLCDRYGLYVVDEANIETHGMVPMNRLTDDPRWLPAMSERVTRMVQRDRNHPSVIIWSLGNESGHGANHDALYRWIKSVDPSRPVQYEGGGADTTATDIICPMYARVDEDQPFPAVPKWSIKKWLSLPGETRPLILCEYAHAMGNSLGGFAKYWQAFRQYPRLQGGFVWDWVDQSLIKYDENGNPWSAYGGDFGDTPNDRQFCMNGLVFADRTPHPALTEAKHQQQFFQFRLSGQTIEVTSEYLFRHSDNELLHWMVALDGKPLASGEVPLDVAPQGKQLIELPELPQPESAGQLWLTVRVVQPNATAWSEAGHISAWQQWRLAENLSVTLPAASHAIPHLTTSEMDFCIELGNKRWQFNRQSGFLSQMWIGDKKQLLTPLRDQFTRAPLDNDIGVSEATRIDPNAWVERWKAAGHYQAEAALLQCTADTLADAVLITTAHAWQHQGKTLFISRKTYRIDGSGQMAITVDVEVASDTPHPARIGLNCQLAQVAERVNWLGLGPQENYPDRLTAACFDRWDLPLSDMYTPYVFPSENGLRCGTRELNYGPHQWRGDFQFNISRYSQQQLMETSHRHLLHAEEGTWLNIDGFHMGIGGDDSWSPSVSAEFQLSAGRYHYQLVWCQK

Row | Compound | k2 (turnover rate) (β-galactosidase) [µmol/min/mg] | Km (β-galactosidase) [µM] | toxicity effects on labelled cells (cells) | toxicity to the cells (plant cell populations) | other results
1 | O=C1OC2(c3ccc(O[C@@H]4O[C@H](CO)[C@H](O)[C@H](O)[C@H]4O)cc3Oc3cc(O[C@@H]4O[C@H](CO)[C@H](O)[C@H](O)[C@H]4O)ccc32)c2ccccc21 [C0 FDG, fluorescein di-62-galactopyranoside, reference compound] | 1.90 | 18 | – | – | –
2 | CCCCCCCCCCCC(=O)Nc1ccc2c(c1)C(=O)OC21c2ccc(O[C@@H]3O[C@H](CO)[C@H](O)[C@H](O)[C@H]3O)cc2Oc2cc(O[C@@H]3O[C@H](CO)[C@H](O)[C@H](O)[C@H]3O)ccc21 [C12 FDG, 5-DODECANOYLAMINOFLUORESCEIN DI-β-D-GALACTOPYRANOSIDE] | 0.0537 | 0.316 | no detectible toxicity effects | – | fluorescence in 3T3 cells (NIH3T3 (lacZ-) cells): not in 3T3 cells; time at which fluorescence intensity in CRE BAG 2 cells reached its highest level (CRE BAG 2 (lacZ+) cells): 6 h; fluorescence inside CRE BAG 2 cells (CRE BAG 2 (lacZ+) cells; after 1 hr. incubation): fluorescence was observed inside CRE BAG 2 cells; population doubling time compared with control (cells; 60 μM labeling medium): same population doubling time as the control; population doubling time compared with control (cells; 0.2 mM in the culture medium): same population doubling time as the control; morphology and viability of cells (cells; grown in 0.2 mM for 10 days): normal morphology and remained viable; also recorded: normal in morphology and appearance; second generation of subcultured cells (cells; preincubated in 60 μM for 24 hrs.): cells of second generation were normal; second generation of subcultured cells (cells; preincubated in the labeled culture medium for 24 hrs.): cells of the second generation were normal
3 | CCCCCCCCCCCCCCCC(=O)Nc1ccc2c(c1)C(=O)OC21c2ccc(O[C@@H]3O[C@H](CO)[C@H](O)[C@H](O)[C@H]3O)cc2Oc2cc(O[C@@H]3O[C@H](CO)[C@H](O)[C@H](O)[C@H]3O)ccc21 [C16 FDG] | 0.273 | 1.06 | no detectible toxicity effects | – | –
4 | CCCCCCCCCCCCCCCCCC(=O)Nc1ccc2c(c1)C(=O)OC21c2ccc(O[C@@H]3O[C@H](CO)[C@H](O)[C@H](O)[C@H]3O)cc2Oc2cc(O[C@@H]3O[C@H](CO)[C@H](O)[C@H](O)[C@H]3O)ccc21 [C18 FDG] | 8.28 | 20.8 | no detectible toxicity effects | – | –
5 | CCCCCCCCCCCCCCCCCC(=O)Nc1ccc2c(c1)C(=O)OC21c2ccc(O)cc2Oc2cc(O)ccc21 [Example F18, octadecanoyl aminofluorescein] | – | – | – | non-toxic | –
6 | CCCCCCCCCCCCCCCCCCOC(=O)c1ccccc1-c1c2ccc(=[N+](CC)CC)cc-2oc2cc(N(CC)CC)ccc12 [Example R18, octadecyl rhodamine B] | – | – | – | non-toxic | –
7 | CCCCCCCCCCCC(=O)Nc1ccc2c(c1)C(=O)OC21c2ccc(O[C@@H]3O[C@H](C(=O)O)[C@@H](O)[C@H](O)[C@H]3O)cc2Oc2cc(O[C@@H]3O[C@H](C(=O)O)[C@@H](O)[C@H](O)[C@H]3O)ccc21 [FA910, 5-DODECANOYLAMINOFLUORESCEIN DI-β-D-GLUCOPYRANOSIDURONIC ACID, DI-LITHIUM SALT] | – | – | – | – | staining of tobacco cells (yellowish-green fluorescence) [1]: Only the GUS gene positive tobacco plant cells were stained
8 | O=c1ccc2nc3ccc(O[C@@H]4O[C@H](CO)[C@H](O)[C@H](O)[C@H]4O)cc3oc-2c1 [resorufin galactoside] | – | – | – | – | time to detect enzyme activity in a single lacZ+ cell (lacZ+ cell): ≤ 1 h
9 | fluorescein isothiocyanate [FITC] | – | – | – | non-toxic | toxicity to the cells at high levels (plant cell populations; high levels): toxic at high levels
10 | rhodamine isothiocyanate [RITC] | – | – | – | non-toxic | toxicity to the cells at high levels (plant cell populations): toxic at high levels
